Key:
[1] = system: Monocotyledonous and dicotyledonous test plants; test: Post-emergence herbicidal action, greenhouse pot test, sprayed at the 2- to 3-leaf stage, 9-level rating after 2 to 3 weeks; type: in vivo; set-up: key: 9-level scale: 1 = complete damage, 9 = no effect; conditions: 250 g/ha, rated after 2 to 3 weeks, 9-level scale
How it was run: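 Plants grown in standard soil in pots; test substances sprayed at the 2- to 3-leaf stage at optimum dosage (500 l water/ha) as aqueous suspension or emulsion from formulated concentrates. Plants then kept in the greenhouse under optimum conditions; rated after 2 to 3 weeks on a 9-level scale (1=complete damage, 9=no effect).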

[2] = system: Monocotyledonous and dicotyledonous test plants; test: Herbicidal action before emergence of the plants (pre-emergence action), greenhouse pot test, 9-level rating after 4 weeks; type: in vivo; set-up: key: 9-level scale: 1 = complete damage, 9 = no effect; conditions: 250 g/ha, rated after 4 weeks, 9-level scale
How it was run: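 Compounds applied pre-emergence as a spray (500 l water/ha) of aqueous suspension or emulsion onto soil immediately after sowing mono- and dicot species in pots. Greenhouse-grown; damage rated after 4 weeks on a 9-level scale (1=complete damage, 9=no effect).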

Structure (SMILES) | Post-emergence action rating, Abutilon [1] | Post-emergence action rating, Amaranth [1] | Post-emergence action rating, Chenop. [1] | Post-emergence action rating, Digitaria [1] | Post-emergence action rating, Echino. [1] | Post-emergence action rating, Ipopur. [1] | Post-emergence action rating, Panicum [1] | Post-emergence action rating, Xanth. [1] | Pre-emergence action rating, Abutilon [2] | Pre-emergence action rating, Amaranthus [2] | Pre-emergence action rating, Chenop. [2] | Pre-emergence action rating, Digitaria [2] | Pre-emergence action rating, Echino. [2] | Pre-emergence action rating, Panicum [2]
COCCOCc1nc(C(F)(F)F)ccc1C(=O)c1cnn(C)c1OS(C)(=O)=O [A10-C28] | 3 | 2 | 1 | 4 | 4 | 3 | 4 | 3 | 1 | 1 | 1 | 3 | 2 | 1
O=C(C1=C(O)C2CCC(C2)C1=O)c1ccc(C(F)(F)F)nc1COCC1CC1 (centres unmarked) [A56-B52] | 2 | 1 | 1 | 2 | 2 | 2 | 1 | 2 | 3 | 1 | 1 | 2 | 1 | 1
CCOCCOCc1nc(C(F)(F)F)ccc1C(=O)C1=C(O)C2CCC(C2)C1=O (centres unmarked) [A11-B52] | 2 | 1 | 1 | 1 | 2 | 2 | 1 | 2 | 1 | 2 | 1 | 1 | 1 | 1
COCCOCc1nc(C(F)(F)Cl)ccc1C(=O)C1=C(O)C2CCC(C2)C1=O (centres unmarked) [A556-B52] | 1 | 2 | 1 | 2 | 2 | 2 | 1 | 2 | 1 | 2 | 1 | 1 | 1 | 1
O=C(C1=C(O)C2CCC(C2)C1=O)c1ccc(C(F)(F)F)nc1COC1COC1 (centres unmarked) [A24-B52] | 2 | 2 | 1 | 2 | 2 | 2 | 2 | 2 | 1 | 1 | 1 | 1 | 1 | 1
CC#CCOCc1nc(C(F)(F)F)ccc1C(=O)c1cnn(C)c1O [A20-C5] | 3 | 2 | 1 | 3 | 4 | 3 | 2 | 3 | 1 | 1 | 1 | 2 | 2 | 1
CS(=O)(=O)CCOCc1nc(C(F)(F)F)ccc1C(=O)C1=C(O)C2CCC(C2)C1=O (centres unmarked) [A819-B52] | 2 | 2 | 1 | 3 | 2 | 2 | 2 | 2 | 1 | 2 | 1 | 9 | 7 | 7
CCCOCCOCc1nc(C(F)(F)F)ccc1C(=O)C1=C(O)C2CCC(C2)C1=O (centres unmarked) [A841-B52] | 3 | 1 | 1 | 4 | 4 | 3 | 2 | 3 | 1 | 1 | 1 | 2 | 1 | 1
C=CCOCc1nc(C(F)(F)F)ccc1C(=O)C1=C(O)C2CCC(C2)C1=O (centres unmarked) [A19-B52] | 1 | 1 | 1 | 1 | 2 | 1 | 1 | 2 | 1 | 2 |  | 1 | 1 | 1

— patent US7378375B1, “Substituted pyridine herbicides” (Syngenta Crop Protection, Inc., priority 2000, dated 2008)
